Test results from US12508323B2, “Method of treatment of colorectal, breast and lung cancer with metal containing immune agonist complexes” (HANGZHOU XINGAO BIOTECHNOLOGY CO., LTD., priority 2020, dated 2025).

Experiments:
[1] = tested on: coronavirus (ATCC VR-841); assay: Inhibition of coronavirus replication in PBMCs (fluorescence quantitative RT-PCR); assay type: cell-based; conditions: PBMC, 504 h, 100 μg/mL drug, 10 μL virus, after three weeks, six samples per group, read-out: Average inhibition rate of coronavirus (%)
Text: Peripheral blood mononuclear cells (PBMCs) used herein was purchased from Shanghai Saili biotechnology Co., Ltd, which mainly included lymphocytes (T cells/B cells), monocytes, macrophages, and dendritic cells. Most of PBMCs were lymphocytes. PBMCs were normal primary cells, which belonged to a mixed system.
The virus strain used herein was coronavirus (ATCC VR-841), which was suitable for laboratory use and purchased from ATCC company. It was a bronchopneumonia coronavirus. Virus experiments in this study were performed by virus laboratory of American Animals Inc.
The cultured PBMCs were divided into seven groups (six samples in each group), namely, group A: negative control group (PBMC); group B, PBMC+cGAMP; group C, PBMC+MncGAMP; group D, PBMC+complex VIII; group E, PBMC+complex I; group F, PBMC+complex II; and group G, PBMC+complex III. Except for group A, which was used as a control group without drug addition, all other groups were respectively added with 100 μg/mL of the corresponding drug. Each cell sample was added with 10 μL of virus, and the antiviral status of the different immune agonist complexes were determined after three weeks. The inhibition rate of virus was selected as an evaluation index. The activity titer of the virus was detected by fluorescence quantitative RT-PCR.

OVA = assay: Immune adjuvant function with OVA immunization (ELISA); assay type: in vivo; conditions: values of log2; s.c. 10 μg OVA + 100 μg adjuvant on days 1, 7, 14; sampled day 21; C57BL/6 mice
Protocol: Specific pathogen free (SPF)-grade C57BL/6 male mice, aged 7-8 weeks and weighing 20-22 g, were purchased from American Animals Inc. The aluminum adjuvant and OVA were purchased from Invitrogen company.
The mice were divided into 7 groups (10 mice in each group), namely, group A: OVA+cGAMP; group B: OVA+MncGAMP; group C: OVA+complex VIII; group D: OVA+complex IV; group E: OVA+complex VII; group F: OVA+aluminum adjuvant; and group G: OVA.
Each mouse was injected subcutaneously with 10 μg of OVA and 100 μg of aluminum adjuvant or a different species of cGAMP (or the immune agonist complex), and those not injected were negative control groups. Immunization was performed once on days 1, 7, and 14, respectively, and lung lavage fluid was obtained and blood samples taken on day 21. The potency of the immune agonist and the complex as adjuvants to induce nanobody production was determined by ELISA, and the results were shown in Table 7.

In the case of `Nc1nc(=O)c2ncn(C3OC4COP(=O)(O)OC5C(COP(=O)(O)OC3C4O)OC(n3cnc4c(N)ncnc43)C5O)c2[nH]1` (stereo not drawn) [cGAMP, 2′3′-cGAMP], the inhibition at 100 µg/mL [1] is reported as 25 ± 4%, the “Alveolar lavage fluid (IgA)” value (OVA) is reported as 2.3 ± 0.2 and the “Serum (IgG)” value (OVA) is reported as 17.5 ± 0.9.
